Results on nine compounds are retold here after patent EP0976707A1, “CYCLOALKYL BENZYL ETHER COMPOUNDS” (Nissan Chemical Industries, Ltd., priority 1997, dated 1998).

Each structure is given as a SMILES string. Like-named read-outs stand apart in the source and are kept apart here.

What all share (assay type): in vivo
Series [1] has as its system Monochoria vaginalis. The series is described as follows: Herbicidal effect test under submerged conditions, inhibition ratio (Test Example 6). The note with it: Pontederia vaginalis, 504 h, read-out: inhibition ratio (%), C (Monochoria vaginalis); for pest or weed control at 2 g/ha: dosage 2 g/ha. From the text:
(§1) [Test Example 6] Herbicidal effect test under submerged conditions
(§2) In a 1/5,000-are Wagner pot was filled alluvial soil, which was mixed with water introduced therein to establish submerged conditions at a water depth of 4 cm. After seeds of Monochoria vaginalis and Scirpus juncoides were sowed mixedly in the pot, 2.5 leaf stage rice seedlings were transplanted at a depth of 2 cm. On the next day of transplantation of the rice, the compound of the present invention prepared according to one of Composition Examples was applied. Three weeks after the treatment, the live weights of aerial parts of each kind of the weeds and rice were measured and inhibition ratios (%) were obtained according to Test Example 4. In the tables, (E) indicates expected values obtained by the equation of Colby and (F) indicates found values. Left side values and right side values in the column of application rate for each active ingredient indicate corresponding dosages of compounds in the column of compound name.
(§3) Synergistic herbicidal effect of herbicide mixtures will be explained as follows. That is, individual active compounds in many cases may be deficient in their herbicidal activity. In such a case, if the herbicidal activity of two active compounds in combination is higher than the simple sum of the activities of the compounds (expected activity), then this is called synergistic action. The expected activity from the stable combination of two herbicides, can be calculated as follows. (cf. Colby, S. R., Calculation of Synergistic and Antagonistic Reactions of Combination of Herbicides, Weed, vol. 15, pages 20-22 (1967)) E = α + β - ( α · β / 100) [formula] α : Inhibition ratio when herbicide A is applied in a rate of a kg/ha β : Inhibition ratio when herbicide B is applied in a rate of b kg/ha E : Inhibition ratio expected when herbicide A is applied in a rate of a kg/ha and herbicide B is applied in a rate of b kg/ha.

The test system of series [2] is Scirpus juncoides. The series is described as above. The note with it: Schoenoplectiella juncoides, 504 h, read-out: inhibition ratio (%), B (Scirpus juncoides); for pest or weed control at 2 g/ha: dosage 2 g/ha.
Description: as §1, §2, §3

For a further series, the system named is transplanted rice. The series is described as above. Particulars: live weight of aerial part, three weeks after the treatment. The source says: Herbicidal effect test under submerged conditions
In a 1/5,000-are Wagner pot was filled alluvial soil, which was mixed with water introduced therein to establish submerged conditions at a water depth of 4 cm. After seeds of Monochoria vaginalis and Scirpus juncoides were sowed mixedly in the pot, 2.5 leaf stage rice seedlings were transplanted at a depth of 2 cm. On the next day of transplantation of the rice, the compound of the present invention prepared according to one of Composition Examples was applied. […] In the tables, (E) indicates expected values obtained by the equation of Colby and (F) indicates found values.
The expected activity from the stable combination of two herbicides, can be calculated as follows.

The subject of series [3] is Monochoria vaginalis. Kind of series: Herbicidal effect test under submerged conditions (Test Example 5). Also on record: key: 0 indicating no influence; 5 indicating complete withering. The note with it: dosage 500 g/ha; three weeks after the treatment; rating 0-5. The source says:
(§4) [Test Example 5] Herbicidal effect test under submerged conditions
(§5) In a 1/10,000-are Wagner pot was filled alluvial soil, which was mixed with water introduced therein to establish submerged conditions at a water depth of 4 cm. Respective seeds of Monochoria vaginalis, Rotala indica and Scirpus juncoides were sowed mixedly in the pot and then treated with the compound of the present invention prepared according to one of Composition Examples. Three weeks after the treatment, the herbicidal effect on the various weeds was examined.

The next series relates to Rotala indica. The description is as above. Also on record: key: 0 indicating no influence; 5 indicating complete withering. The note with it: dosage 500 g/ha; three weeks after the treatment; rating 0-5.
Description: as §4, §5

Series [4] deals with Scirpus juncoides. The description is as above. Also on record: key: 0 indicating no influence; 5 indicating complete withering. The note with it: dosage 500 g/ha; three weeks after the treatment; rating 0-5.
Description: as §4, §5

Where [5] appears, read: live weight of aerial part, three weeks after the treatment.
Where [6] appears, read: dosage 4 g/ha, live weight of aerial part, three weeks after the treatment.

For `CCOC(=O)c1cnn(C)c1S(=O)(=O)NC(=O)Nc1nc(OC)cc(OC)n1` [R-2, pyrazosulfuron ethyl], the pest or weed control at 2 g/ha in the series on Monochoria vaginalis [1] (setting [5]) came out at 80%; in the series with Scirpus juncoides [2] (setting [5]), 71%. The “inhibition ratio (%), a (transplanted rice)” value (“inhibition ratio (%)” for short) in the series on transplanted rice (dosage 2 g/ha) is given as 0%.
Consider `COC(=O)c1ccccc1CS(=O)(=O)NC(=O)Nc1nc(OC)cc(OC)n1` [R-9, bensulfuron methyl], for which the pest or weed control at 4 g/ha in the series with Monochoria vaginalis [1] (setting [6]) turned out to be 69%; in the series with Scirpus juncoides [2] (setting [6]), 68%.
With `COc1cc(OC)nc(NC(=O)NS(=O)(=O)c2c(-c3nnn(C)n3)cnn2C)n1` [R-5, azimsulfuron], the pest or weed control at 2 g/ha in the series with Monochoria vaginalis [1] (setting [5]) came to 75%; in the series on Scirpus juncoides [2] (setting [5]), 61%.
In the case of `Cc1ccc(NC(=O)NC(C)(C)c2ccccc2)cc1` [R-1, daimuron, reference compound], the “herbicidal effect, C (Monochoria vaginalis)” value in the series on Monochoria vaginalis [3] is given as 0. Further, the “herbicidal effect, D (Rotala indica)” value in the series with Rotala indica came out at 1. The “herbicidal effect, B (Scirpus juncoides)” value in the series with Scirpus juncoides [4] was 5.
Consider `COc1cc(OC)nc(NC(=O)NS(=O)(=O)Nc2ccccc2C(=O)C2CC2)n1` [R-6, cyclosulfamuron], for which the pest or weed control at 4 g/ha in the series on Monochoria vaginalis [1] (setting [6]) is 77%; in the series on Scirpus juncoides [2] (setting [6]), 78%. For the same compound, the “inhibition ratio (%)” value with transplanted rice (dosage 4 g/ha) is recorded as 0%.
On to `COCCOc1ccccc1S(=O)(=O)NC(=O)N=c1nc(OC)[nH]c(OC)n1` [R-8, cinosulfuron], for which the pest or weed control at 4 g/ha with Monochoria vaginalis [1] turned out to be 69%; with Scirpus juncoides [2] it was 70%. Moreover, the “inhibition ratio (%)” value in the series with transplanted rice (dosage 4 g/ha) is reported as 0%.
Regarding `COC(=O)c1c(Cl)nn(C)c1S(=O)(=O)NC(=O)Nc1nc(OC)cc(OC)n1` [R-3, halosulfuron methyl], the values for the pest or weed control at 4 g/ha in the series on Monochoria vaginalis [1] and in the series on Scirpus juncoides [2] were 71% and 66%, respectively. Besides, in the series with transplanted rice (dosage 4 g/ha), the “inhibition ratio (%)” value stood at 0%.
`COc1cc(OC)nc(NC(=O)NS(=O)(=O)c2c(Cl)nc3ccccn23)n1` [R-4, imazosulfuron]: the results for the pest or weed control at 4 g/ha with Monochoria vaginalis [1] (setting [6]) and with Scirpus juncoides [2] (setting [6]) were 65% and 60%, respectively.
As for `CCOc1ccccc1OS(=O)(=O)NC(=O)Nc1nc(OC)cc(OC)n1` [R-7, ethoxysulfuron], the pest or weed control at 2 g/ha with Monochoria vaginalis [1] (setting [5]) is 63%; in the series on Scirpus juncoides [2] (setting [5]), 72%.
